In publication PMC4942689, “Deciphering the function of the CNGB1b subunit in olfactory CNG channels” (Scientific Reports, 2016):
Several values for one entry are separate records, joined by “and”; a condition that tells them apart may be missing. Equal values may be shown once. Read-outs that look alike come from different tables or passages of the source.

How the values were obtained:
[1] = biological target: T1, CNGA2:A4 channels (Rattus norvegicus, UniProt Q00195+Q64359); assay: Concentration-activation relationship, inside-out patch-clamp; assay type: biochemical
T1 construct: expressed in transfected cells; host or cells: Xenopus laevis oocytes (cRNA injection), excised inside-out patches
Method: Patch-clamp experiments were performed using an Axopatch 200B amplifier (Molecular Devices LLC, CA, U.S.A.) in the inside-out configuration. The patch pipettes for recording of macroscopic currents were pulled from borosilicate glass tubing (outer diameter 2.0 mm, inner diameter 1.0 mm; Hilgenberg GmbH, Germany). […] The patches were formed as pushed inside-out patches. […] Cyclic nucleotide concentration jumps were performed using a double-barreled glass pipette mounted on a piezo-driven device. Intracellular (bath) and extracellular (pipette) solutions contained (mM) 150 KCl, 1 EGTA, 5 Hepes, pH = 7.4 with KOH. […] Currents in the absence of the cyclic nucleotide were subtracted. All patches included in this study were first tested for channel expression in the presence of a saturating ligand concentration. Only patches with large current, i.e. a large number of channels, were included in our statistics. The currents were measured at +10 mV or, if mentioned, at +100 mV. Fits of equations to data points were performed with the 8.1G® software (OriginLab Corporation, Northampton, U.S.A.). Concentration-activation relationships were obtained by relating the actual current amplitude, I, to the maximum current amplitude elicited by a saturating concentration of ligand, Imax, and plotting this ratio as function of the ligand concentration, x. The concentration-activation data were fitted using the Hill equation where EC50 is the ligand concentration of half maximum effect and H the Hill coefficient.

[2] = biological target: T2, CNGA2RE:A4:B1b channels (Rattus norvegicus, UniProt A0A8I5ZN27+Q00195+Q64359, R538E); assay: Concentration-activation relationship, patch-clamp; assay type: biochemical; details: for EC50: Equation 2, +100 mV
T2 construct: expressed in transfected cells; host or cells: Xenopus laevis oocytes (cRNA injection), excised inside-out patches
Method: In order to consider the combined apparent affinity of CNGA4 and CNGB1b, we measured the concentration-response relationship of CNGA2RE:A4:B1b channels (Fig. 3c; Table 1).
Patch-clamp experiments were performed using an Axopatch 200B amplifier (Molecular Devices LLC, CA, U.S.A.) in the inside-out configuration. The patch pipettes for recording of macroscopic currents were pulled from borosilicate glass tubing (outer diameter 2.0 mm, inner diameter 1.0 mm; Hilgenberg GmbH, Germany). The initial resistance was 0.7–1.3 MΩ. The patches were formed as pushed inside-out patches. […] Cyclic nucleotide concentration jumps were performed using a double-barreled glass pipette mounted on a piezo-driven device. Intracellular (bath) and extracellular (pipette) solutions contained (mM) 150 KCl, 1 EGTA, 5 Hepes, pH = 7.4 with KOH. […] Currents in the absence of the cyclic nucleotide were subtracted. All patches included in this study were first tested for channel expression in the presence of a saturating ligand concentration. Only patches with large current, i.e. a large number of channels, were included in our statistics. The currents were measured at +10 mV or, if mentioned, at +100 mV.
Fits of equations to data points were performed with the 8.1G® software (OriginLab Corporation, Northampton, U.S.A.). Concentration-activation relationships were obtained by relating the actual current amplitude, I, to the maximum current amplitude elicited by a saturating concentration of ligand, Imax, and plotting this ratio as function of the ligand concentration, x. The concentration-activation data were fitted using the Hill equation
For the concentration-activation relationships showing two components, the data points were fitted to the sum of two Hill equations according to
EC50,h, EC50,l, Hh, and Hl are the ligand concentration of half maximum current and the Hill coefficient for the high and low affinity component, respectively. a and (1-a) denote the contribution of the high and low affinity component, respectively.

[3] = biological target: T3, CNGA2RE:A4RE:B1bRE (Rattus norvegicus, UniProt A0A8I5ZN27+Q00195+Q64359, R1106E/R430E/R538E); assay: Ligand binding, confocal patch-clamp fluorometry; design: key to Ligand binding to CNGA4 / Ligand binding to CNGB1b: +: ligand binding to the respective modulatory subunits was either observed or not; −: ligand binding to the respective modulatory subunits was either observed or not
T3 construct: expressed in transfected cells; host or cells: Xenopus laevis oocytes (cRNA injection), excised inside-out patches
Source text: (§1) The channels to be studied were expressed in Xenopus oocytes. We first tested the subunit composition in our channels when coexpressing different combinations of subunits by single-channel recordings. For CNGA2:A4, CNGA2:B1b and CNGA2:A4:B1b channels we exclusively obtained the specific and easily distinguishable single-channel activity reported earlier when injecting respective amounts of RNA[7][13]. We therefore assumed that the channels formed had always the expected subunit composition. The specific binding of cyclic nucleotides and the activation of the CNG channels were measured in parallel by means of confocal patch-clamp fluorometry in excised patches, using fluorescent cyclic nucleotide derivatives. The method has been described previously.
(§2) To verify the hypothesis that the CNGB1b subunit in CNGA2:A4:B1b channels binds cyclic nucleotides, we coexpressed CNGB1b with CNGA4RE and either CNGA2RE or CNGA2TM and measured ligand binding in the presence of 10 μM fcGMP. […] To verify the specificity of the binding to the CNGB1b subunit in these heterotetrameric channels, we coexpressed the CNGB1bRE subunit with CNGA2RE and CNGA4RE.
(§3) The ligand binding was measured in macropatches by patch-clamp fluorometry[41][42] combined with confocal microscopy. […] Recordings were performed with an LSM 510 or 710 confocal microscope (Zeiss, Jena, Germany) and were triggered by the ISO3 software (MFK, Niedernhausen, Germany). To distinguish between the fluorescence of the unbound ligands from that of the bound ligands, a second dye, DY647 (Dyomics, Jena, Germany), was added to the bath solution. The 543-nm and 633-nm lines of a He-Ne laser were used to excite fcAMP/fcGMP and DY647, respectively. The method of confocal patch-clamp fluorometry has been described in detail previously.

[4] = biological target: T4, CNGA2TM:A4RE:B1b (Rattus norvegicus, UniProt A0A8I5ZN27+Q00195+Q64359, R430E/T539M); assay: Ligand binding, confocal patch-clamp fluorometry; design: key to Ligand binding to CNGA4 / Ligand binding to CNGB1b: +: ligand binding to the respective modulatory subunits was either observed or not; −: ligand binding to the respective modulatory subunits was either observed or not
T4 construct: expressed in transfected cells; host or cells: Xenopus laevis oocytes (cRNA injection), excised inside-out patches
Source text: as §1, §2, §3

[5] = system: CNGB1b; design: method as in Nache et al., 2012; key: +: ligand binding to the respective modulatory subunits was either observed or not; −: ligand binding to the respective modulatory subunits was either observed or not; details: 10 μM; construct CNGB1b; ref Nache et al., 2012; cited from earlier work
[6] = 10 μM, construct CNGA2RE:A4RE:B1bRE
[7] = 10 μM, construct CNGA2TM:A4RE:B1b

T4 sequence (Q00195 whole entry T539M): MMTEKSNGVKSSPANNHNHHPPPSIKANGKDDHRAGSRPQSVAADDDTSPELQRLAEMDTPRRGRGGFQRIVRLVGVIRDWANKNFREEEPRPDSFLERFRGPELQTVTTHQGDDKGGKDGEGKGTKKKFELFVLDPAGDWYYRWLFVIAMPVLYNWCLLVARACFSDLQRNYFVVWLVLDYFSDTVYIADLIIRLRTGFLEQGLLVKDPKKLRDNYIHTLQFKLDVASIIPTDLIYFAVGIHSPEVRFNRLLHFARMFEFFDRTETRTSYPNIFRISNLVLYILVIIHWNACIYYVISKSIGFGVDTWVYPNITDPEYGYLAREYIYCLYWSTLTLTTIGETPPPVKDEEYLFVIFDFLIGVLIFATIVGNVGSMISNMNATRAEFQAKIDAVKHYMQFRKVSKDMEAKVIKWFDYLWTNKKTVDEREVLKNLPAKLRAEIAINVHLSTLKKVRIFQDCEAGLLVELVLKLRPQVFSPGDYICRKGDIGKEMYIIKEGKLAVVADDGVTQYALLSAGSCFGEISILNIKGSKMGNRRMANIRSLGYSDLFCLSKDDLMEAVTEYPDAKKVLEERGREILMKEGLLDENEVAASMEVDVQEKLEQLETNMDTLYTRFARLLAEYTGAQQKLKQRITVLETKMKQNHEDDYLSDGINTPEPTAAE
T4 sequence (Q64359 whole entry R430E): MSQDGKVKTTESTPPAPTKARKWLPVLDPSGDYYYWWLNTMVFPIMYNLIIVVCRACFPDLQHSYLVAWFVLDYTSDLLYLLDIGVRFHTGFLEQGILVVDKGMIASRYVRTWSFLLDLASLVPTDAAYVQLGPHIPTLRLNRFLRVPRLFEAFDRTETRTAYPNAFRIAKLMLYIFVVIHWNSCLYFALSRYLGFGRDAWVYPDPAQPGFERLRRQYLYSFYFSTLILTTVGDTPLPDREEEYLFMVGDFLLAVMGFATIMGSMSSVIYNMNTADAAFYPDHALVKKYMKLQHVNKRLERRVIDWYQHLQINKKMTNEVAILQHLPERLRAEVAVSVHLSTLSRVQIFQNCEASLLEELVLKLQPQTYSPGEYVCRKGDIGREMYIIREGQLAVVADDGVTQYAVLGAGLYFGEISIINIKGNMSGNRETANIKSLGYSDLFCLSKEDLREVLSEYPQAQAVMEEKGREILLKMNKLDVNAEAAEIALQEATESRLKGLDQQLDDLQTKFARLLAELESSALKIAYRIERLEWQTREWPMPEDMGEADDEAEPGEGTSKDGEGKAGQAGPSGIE
T4 sequence (A0A8I5ZN27 1-858 isoform A0A8I5ZN27-2, stated change not applied): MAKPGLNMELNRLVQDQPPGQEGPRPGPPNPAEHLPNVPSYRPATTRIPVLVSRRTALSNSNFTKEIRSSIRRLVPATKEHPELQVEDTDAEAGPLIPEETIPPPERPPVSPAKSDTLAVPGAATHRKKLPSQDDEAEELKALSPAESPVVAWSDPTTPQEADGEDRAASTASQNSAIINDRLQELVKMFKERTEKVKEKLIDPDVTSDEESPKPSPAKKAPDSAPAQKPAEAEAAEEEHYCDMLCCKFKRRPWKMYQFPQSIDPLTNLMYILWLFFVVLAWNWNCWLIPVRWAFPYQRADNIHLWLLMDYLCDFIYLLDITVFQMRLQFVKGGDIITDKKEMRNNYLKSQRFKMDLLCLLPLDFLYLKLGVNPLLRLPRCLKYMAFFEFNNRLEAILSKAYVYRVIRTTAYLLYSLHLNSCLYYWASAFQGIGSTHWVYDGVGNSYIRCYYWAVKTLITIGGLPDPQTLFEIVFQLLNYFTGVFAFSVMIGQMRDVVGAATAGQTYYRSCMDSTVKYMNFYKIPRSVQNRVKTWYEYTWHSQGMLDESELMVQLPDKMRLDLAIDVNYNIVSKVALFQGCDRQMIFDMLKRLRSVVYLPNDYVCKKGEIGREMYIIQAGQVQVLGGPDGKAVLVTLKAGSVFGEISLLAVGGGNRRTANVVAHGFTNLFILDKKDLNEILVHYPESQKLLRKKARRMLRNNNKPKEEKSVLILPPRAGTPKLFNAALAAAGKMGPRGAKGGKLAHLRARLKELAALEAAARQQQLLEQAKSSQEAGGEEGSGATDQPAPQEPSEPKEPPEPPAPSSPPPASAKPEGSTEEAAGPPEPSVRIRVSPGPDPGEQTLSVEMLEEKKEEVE
T2 sequence (Q00195 whole entry R538E): as the sequence (Q00195 whole entry T539M) above, with R538E, M539T counted along it
T2 sequence (Q64359 whole entry): as the sequence (Q64359 whole entry R430E) above, with E430R counted along it
T2 sequence (A0A8I5ZN27 1-858 isoform A0A8I5ZN27-2, stated change not applied): as the sequence (A0A8I5ZN27 1-858 isoform A0A8I5ZN27-2, stated change not applied) above
T3 sequence (Q00195 whole entry R538E): as the sequence (Q00195 whole entry T539M) above, with R538E, M539T counted along it
T3 sequence (Q64359 whole entry R430E): as the sequence (Q64359 whole entry R430E) above
T3 sequence (A0A8I5ZN27 1-858 isoform A0A8I5ZN27-2 R657E): as the sequence (A0A8I5ZN27 1-858 isoform A0A8I5ZN27-2, stated change not applied) above, with R657E counted along it
T1 sequence (Q00195 whole entry): as the sequence (Q00195 whole entry T539M) above, with M539T counted along it
T1 sequence (Q64359 whole entry): as the sequence (Q64359 whole entry R430E) above, with E430R counted along it

Molecule	EC50 ([1]; Equation 1)	H ([1]; Hill coefficient)	Hh ([2]; Hill coefficient of high affinity component, +100 mV)	H1 ([2]; Hill coefficient of low affinity component, +100 mV)	contribution of the high-affinity component (a) ([2]; combined contribution of CNGA4 and CNGB1b)	a (contribution of the high affinity component) ([2]; fraction, Equation 2)	EC50 ([2]; high affinity component (CNGA4 and CNGB1b combined), read-out: EC50,h)	EC50 ([2]; low affinity component, read-out: EC50,l)	binding (in words) ([3]; 10 μM fcGMP, CNGB1bRE with CNGA2RE and CNGA4RE)	Ligand binding to CNGA4 [3, 6]	Ligand binding to CNGB1b [3, 6]	binding to the CNGB1b subunit (in words) ([4]; 10 μM fcGMP, CNGB1b with CNGA4RE and CNGA2TM)	Ligand binding to CNGA4 [4, 7]	Ligand binding to CNGB1b [4, 7]	Ligand binding to CNGB1b [5]
Nc1nc2c(ncn2[C@@H]2O[C@@H]3COP(=O)(O)O[C@H]3[C@H]2O)c(=O)[nH]1 [cGMP]	1.28 µM	1.7	1.05 and 1.1	1.2	89%	0.89	5.7 µM	733 µM							
8-[DY-547]-AET-cGMP [fcGMP]									essentially diminished	−	−	robust binding	−	+	−
